# Data from patent US20220400680A1, “USE OF ACYLCYANAMIDES OR SALTS THEREOF FOR REGULATING PLANT GROWTH” (Alzchem Trostberg GmbH, priority 2019, published 2022).
# Legend:
# [1] = tested on: Table apple, type Boiken apple (C1); experiment: Greenhouse test, cut apple branches C1 dipped in test solution, bud development stage; assay type: in vivo, Malus domestica; parameters: key to Bud development stage, apple branches C1: Stage 0: Buds unchanged; Stage 1: Buds slightly swollen, first green tips visible; Stage 2: strongly swollen, green buds; Stage 3: Buds before breaking open, leaf or flower root already visible; Stage 4: Flower buds fully developed, but still closed, white petals already visible. In the case of the grapevine, stage 4 was the unfolding of the first leaves; Stage 5: Flowers fully open or, in the case of grapevine, unfolding of the flower roots (“Gescheine”) on the fully leafed sprouts; conditions: for Good to very good dormancy-breaking effect, apple C1: stage 4 reached or exceeded after 27 days vs negative control; for Dormancy-breaking effect according to the definition, apple C1: stage 4 reached or exceeded after 36 days vs negative control
# Outline: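 Cut Boiken apple branches kept in water jars in a greenhouse at about 22 °C under natural light and dipped in test solution. Solutions contained 0.15 mol test substance (0.075 mol for bis-cyanamides) plus 0.15 g BreakThru OE-446 per 500 g water. Bud development scored on a stage scale up to full flowering.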
# [2] = tested on: Grape, type Pinot Noir (C4); experiment: Greenhouse test, cut wine sprouts C4 dipped in test solution, bud development stage; assay type: in vivo, Vitis vinifera subsp. vinifera; parameters: key to Bud development stage, wine sprouts C4: Stage 0: Buds unchanged; Stage 1: Buds slightly swollen, first green tips visible; Stage 2: strongly swollen, green buds; Stage 3: Buds before breaking open, leaf or flower root already visible; Stage 4: Flower buds fully developed, but still closed, white petals already visible. In the case of the grapevine, stage 4 was the unfolding of the first leaves; Stage 5: Flowers fully open or, in the case of grapevine, unfolding of the flower roots (“Gescheine”) on the fully leafed sprouts; conditions: for Dormancy-breaking effect according to the definition, wine C4: stage 4 reached or exceeded after 36 days vs negative control
# Outline: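 Cut Pinot Noir grapevine sprouts were dipped in aqueous test solution (0.15 mol test substance, or 0.075 mol for bis-cyanamides, plus 0.15 g BreakThru OE-446 per 500 g total) and kept in water jars at about 22° C under natural light. Bud development was scored on a staged scale from closed buds to fully open flowers.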
# [3] = tested on: Table cherry, type Burlat (C3); experiment: Greenhouse test, cut cherry branches C3 dipped in test solution, bud development stage; assay type: in vivo, Prunus avium; parameters: key to Bud development stage, cherry branches C3: Stage 0: Buds unchanged; Stage 1: Buds slightly swollen, first green tips visible; Stage 2: strongly swollen, green buds; Stage 3: Buds before breaking open, leaf or flower root already visible; Stage 4: Flower buds fully developed, but still closed, white petals already visible. In the case of the grapevine, stage 4 was the unfolding of the first leaves; Stage 5: Flowers fully open or, in the case of grapevine, unfolding of the flower roots (“Gescheine”) on the fully leafed sprouts; conditions: for Dormancy-breaking effect according to the definition, cherry C3: stage 4 reached or exceeded after 27 days vs negative control
# Outline: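 Cut branches kept in water jars in a greenhouse at about 22° C. under natural light after dipping in aqueous solution of 0.15 mol test substance (0.075 mol for bis-cyanamides) plus 0.15 g BreakThru OE-446 per 500 g. Bud development scored on a stage scale from closed buds to fully open flowers.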
# [4] = tested on: Table apple, type Zabergäu-Renette (C2); experiment: Greenhouse test, cut apple branches C2 dipped in test solution, bud development stage; assay type: in vivo, Malus domestica; parameters: key to Bud development stage, apple branches C2: Stage 0: Buds unchanged; Stage 1: Buds slightly swollen, first green tips visible; Stage 2: strongly swollen, green buds; Stage 3: Buds before breaking open, leaf or flower root already visible; Stage 4: Flower buds fully developed, but still closed, white petals already visible. In the case of the grapevine, stage 4 was the unfolding of the first leaves; Stage 5: Flowers fully open or, in the case of grapevine, unfolding of the flower roots (“Gescheine”) on the fully leafed sprouts; conditions: for Dormancy-breaking effect according to the definition, apple C2: stage 4 reached or exceeded after 36 days vs negative control
# Outline: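 Cut branches held in water jars in a greenhouse at about 22° C. under natural light after dipping in aqueous test solution: 0.15 mol substance (0.075 mol for bis-cyanamides) plus 0.15 g BreakThru OE-446 per 500 g. Bud development scored on a stage scale from closed buds to fully open flowers.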
# [5] = T1 (14 d), 0.15 mol (A-14, A-15: 0.075 mol) per 500 g solution
SMILES,"Bud development stage, apple branches C1 [1, 5]","Bud development stage, apple branches C1 ([1]; T2 (16 d))","Bud development stage, apple branches C1 ([1]; T3 (21 d))","Bud development stage, apple branches C1 ([1]; T4 (27 d))","Bud development stage, apple branches C1 ([1]; T5 (36 d))","Bud development stage, apple branches C1 ([1]; T6 (56 d))","Dormancy-breaking effect according to the definition, apple C1 [1]","Bud development stage, wine sprouts C4 [2, 5]","Bud development stage, wine sprouts C4 ([2]; T2 (16 d))","Bud development stage, wine sprouts C4 ([2]; T3 (21 d))","Bud development stage, wine sprouts C4 ([2]; T4 (27 d))","Bud development stage, wine sprouts C4 ([2]; T5 (36 d))","Bud development stage, wine sprouts C4 ([2]; T6 (56 d))","Bud development stage, cherry branches C3 [3, 5]","Bud development stage, cherry branches C3 ([3]; T2 (16 d))","Bud development stage, cherry branches C3 ([3]; T3 (21 d))","Bud development stage, cherry branches C3 ([3]; T4 (27 d))","Bud development stage, cherry branches C3 ([3]; T5 (36 d))","Bud development stage, cherry branches C3 ([3]; T6 (56 d))","Bud development stage, apple branches C2 [4, 5]",also measured
"CC(C)C(=O)NC#N.[Na] [Example A-7, Sodium isobutyryl cyanamide]",2,3,4,5,5,5,dormancy-breaking effect,0,0,0,2,5,5,0,0,1,2,4,5,0,"Good to very good dormancy-breaking effect, apple C1 [1]: good to very good dormancy-breaking effect; Dormancy-breaking effect according to the definition, wine C4 [2]: dormancy-breaking effect; melting point: 127 to 133 °C; Bud development stage, apple branches C2 ([4]; T2 (16 d)): 0; Bud development stage, apple branches C2 ([4]; T3 (21 d)): 1; Bud development stage, apple branches C2 ([4]; T4 (27 d)): 1; Bud development stage, apple branches C2 ([4]; T5 (36 d)): 5; Bud development stage, apple branches C2 ([4]; T6 (56 d)): 5; Dormancy-breaking effect according to the definition, apple C2 [4]: dormancy-breaking effect"
"Cc1ccc(C(=O)NC#N)cc1.[Na] [Example A-13, Sodium-4-methyl-benzoyl-cyanamide]",0,0,0,1,4,4,dormancy-breaking effect,0,0,0,1,3,5,0,0,0,1,2,5,0,"melting point: 340 °C (dec.); Bud development stage, apple branches C2 ([4]; T2 (16 d)): 0; Bud development stage, apple branches C2 ([4]; T3 (21 d)): 1; Bud development stage, apple branches C2 ([4]; T4 (27 d)): 3; Bud development stage, apple branches C2 ([4]; T5 (36 d)): 3; Bud development stage, apple branches C2 ([4]; T6 (56 d)): 5"
"CC(C)(C)C(=O)NC#N.[Na] [Example A-8, Sodium pivaloyl cyanamide]",0,0,2,4,4,4,dormancy-breaking effect,0,0,0,1,4,5,0,0,1,2,4,5,0,"Good to very good dormancy-breaking effect, apple C1 [1]: good to very good dormancy-breaking effect; Dormancy-breaking effect according to the definition, wine C4 [2]: dormancy-breaking effect; Bud development stage, apple branches C2 ([4]; T2 (16 d)): 0; Bud development stage, apple branches C2 ([4]; T3 (21 d)): 0; Bud development stage, apple branches C2 ([4]; T4 (27 d)): 1; Bud development stage, apple branches C2 ([4]; T5 (36 d)): 2; Bud development stage, apple branches C2 ([4]; T6 (56 d)): 4"
"N#CNC(=O)Cc1ccccc1.[Na] [Example A-12, Sodium phenylacetyl cyanamide]",0,1,2,2,5,5,dormancy-breaking effect,0,0,1,3,4,4,0,1,2,5,5,5,0,"Dormancy-breaking effect according to the definition, wine C4 [2]: dormancy-breaking effect; Dormancy-breaking effect according to the definition, cherry C3 [3]: dormancy-breaking effect; Bud development stage, apple branches C2 ([4]; T2 (16 d)): 0; Bud development stage, apple branches C2 ([4]; T3 (21 d)): 3; Bud development stage, apple branches C2 ([4]; T4 (27 d)): 3; Bud development stage, apple branches C2 ([4]; T5 (36 d)): 4; Bud development stage, apple branches C2 ([4]; T6 (56 d)): 5; Dormancy-breaking effect according to the definition, apple C2 [4]: dormancy-breaking effect"
"CCC(=O)NC#N.[Na] [Example A-5, Sodium propionyl cyanamide]",2,2,4,5,5,5,dormancy-breaking effect,0,0,0,1,3,5,1,2,4,4,4,5,0,"Good to very good dormancy-breaking effect, apple C1 [1]: good to very good dormancy-breaking effect; melting point: 143 °C (dec.); Good to very good dormancy-breaking effect, cherry C3 ([3]; stage 4 reached or exceeded after 21 days vs negative control): good to very good dormancy-breaking effect; Dormancy-breaking effect according to the definition, cherry C3 [3]: dormancy-breaking effect; Bud development stage, apple branches C2 ([4]; T2 (16 d)): 0; Bud development stage, apple branches C2 ([4]; T3 (21 d)): 0; Bud development stage, apple branches C2 ([4]; T4 (27 d)): 1; Bud development stage, apple branches C2 ([4]; T5 (36 d)): 3; Bud development stage, apple branches C2 ([4]; T6 (56 d)): 4"
